Patent publication US9493436B2, “Tyrosine phosphatase inhibitors and uses thereof to modulate the activity of enzymes involved in the pathology of Mycobacterium tuberculosis” (priority 2011, dated 2016)

Key:
[1] = target: mPTPA (Mycobacterium tuberculosis, UniProt P9WIA1); experiment: PTP selectivity panel: mPTPA; format: biochemical
[2] = target: T1, PTP1B (Homo sapiens, UniProt P18031); experiment: biochemical; format: biochemical
T1 sequence (P18031 1-435): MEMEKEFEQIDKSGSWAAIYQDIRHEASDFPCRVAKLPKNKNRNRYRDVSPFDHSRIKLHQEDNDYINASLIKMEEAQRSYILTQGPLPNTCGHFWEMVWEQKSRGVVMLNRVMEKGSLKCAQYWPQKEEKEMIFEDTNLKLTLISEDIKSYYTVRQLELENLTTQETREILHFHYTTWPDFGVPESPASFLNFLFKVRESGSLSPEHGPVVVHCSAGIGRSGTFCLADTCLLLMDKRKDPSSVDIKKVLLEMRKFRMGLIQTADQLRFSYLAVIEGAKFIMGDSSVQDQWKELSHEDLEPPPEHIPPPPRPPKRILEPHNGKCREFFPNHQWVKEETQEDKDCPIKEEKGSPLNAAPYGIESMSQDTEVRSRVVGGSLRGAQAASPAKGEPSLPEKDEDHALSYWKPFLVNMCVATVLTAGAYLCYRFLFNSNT

[3] = target: FAP1 (Homo sapiens, UniProt Q12923); experiment: biochemical; format: biochemical
[4] = target: T2, VHX (Homo sapiens, UniProt Q9NRW4); experiment: biochemical; format: biochemical
T2 sequence (Q9NRW4 1-184): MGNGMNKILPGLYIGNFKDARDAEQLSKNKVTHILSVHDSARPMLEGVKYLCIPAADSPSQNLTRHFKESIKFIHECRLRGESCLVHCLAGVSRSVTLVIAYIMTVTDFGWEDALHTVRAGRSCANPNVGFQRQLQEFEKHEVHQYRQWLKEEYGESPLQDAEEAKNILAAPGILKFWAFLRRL

[5] = target: T3, CD45 (Homo sapiens, UniProt P08575); experiment: biochemical; format: biochemical
T3 sequence (P08575 26-1306): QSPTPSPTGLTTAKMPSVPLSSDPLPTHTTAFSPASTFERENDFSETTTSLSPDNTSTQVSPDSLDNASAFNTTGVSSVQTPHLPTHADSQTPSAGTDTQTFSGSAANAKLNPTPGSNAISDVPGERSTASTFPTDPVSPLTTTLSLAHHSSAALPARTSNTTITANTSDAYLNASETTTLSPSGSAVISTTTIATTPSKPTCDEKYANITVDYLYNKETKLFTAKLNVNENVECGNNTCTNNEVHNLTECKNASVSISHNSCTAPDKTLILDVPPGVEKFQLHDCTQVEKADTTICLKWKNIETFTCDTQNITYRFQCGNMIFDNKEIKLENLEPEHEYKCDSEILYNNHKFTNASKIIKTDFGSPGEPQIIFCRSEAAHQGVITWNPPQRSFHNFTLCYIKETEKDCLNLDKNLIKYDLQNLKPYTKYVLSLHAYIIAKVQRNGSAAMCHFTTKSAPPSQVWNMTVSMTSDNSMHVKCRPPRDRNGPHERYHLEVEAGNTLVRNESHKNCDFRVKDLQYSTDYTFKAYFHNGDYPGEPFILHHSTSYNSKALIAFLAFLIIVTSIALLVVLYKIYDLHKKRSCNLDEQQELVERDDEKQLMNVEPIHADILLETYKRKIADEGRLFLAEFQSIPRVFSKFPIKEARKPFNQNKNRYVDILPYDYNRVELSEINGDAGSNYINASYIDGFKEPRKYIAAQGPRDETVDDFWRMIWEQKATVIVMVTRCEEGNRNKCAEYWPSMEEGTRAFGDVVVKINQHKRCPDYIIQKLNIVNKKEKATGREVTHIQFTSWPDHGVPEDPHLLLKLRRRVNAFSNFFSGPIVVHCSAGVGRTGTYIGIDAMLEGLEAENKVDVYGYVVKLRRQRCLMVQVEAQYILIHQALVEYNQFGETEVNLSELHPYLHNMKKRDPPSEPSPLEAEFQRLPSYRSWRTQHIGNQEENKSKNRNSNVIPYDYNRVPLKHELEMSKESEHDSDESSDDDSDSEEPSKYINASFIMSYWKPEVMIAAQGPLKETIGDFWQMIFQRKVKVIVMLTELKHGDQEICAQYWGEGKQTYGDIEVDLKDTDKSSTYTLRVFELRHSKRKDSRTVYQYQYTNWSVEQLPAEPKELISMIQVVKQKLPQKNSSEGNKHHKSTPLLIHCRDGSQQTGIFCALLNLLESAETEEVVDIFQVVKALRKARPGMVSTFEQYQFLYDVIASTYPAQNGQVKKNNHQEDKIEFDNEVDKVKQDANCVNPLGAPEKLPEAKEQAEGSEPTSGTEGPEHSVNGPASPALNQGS

[6] = target: SHP1 (Homo sapiens, UniProt P29350); format: biochemical
[7] = target: Laforin (Homo sapiens, UniProt O95278); format: biochemical
[8] = tested on: IL-6 secretion in cells expressing mPTPB; experiment: IL-6 secretion in cells expressing mPTPB; format: cell-based; conditions: especially at 120 and 240 nM
Excerpt: As explained above, ERK phosphorylation is important in the cellular secretion pathway of IL-6. However, mPTPB blocks or inhibits the phosphorylation of ERK which reduces and potentially prevents IL-6 secretion altogether.

[9] = target: Meg2 (Homo sapiens, UniProt P43378); conditions: read-out: IC50 (μM) Meg2
Sequence of Meg2 (P43378 whole entry): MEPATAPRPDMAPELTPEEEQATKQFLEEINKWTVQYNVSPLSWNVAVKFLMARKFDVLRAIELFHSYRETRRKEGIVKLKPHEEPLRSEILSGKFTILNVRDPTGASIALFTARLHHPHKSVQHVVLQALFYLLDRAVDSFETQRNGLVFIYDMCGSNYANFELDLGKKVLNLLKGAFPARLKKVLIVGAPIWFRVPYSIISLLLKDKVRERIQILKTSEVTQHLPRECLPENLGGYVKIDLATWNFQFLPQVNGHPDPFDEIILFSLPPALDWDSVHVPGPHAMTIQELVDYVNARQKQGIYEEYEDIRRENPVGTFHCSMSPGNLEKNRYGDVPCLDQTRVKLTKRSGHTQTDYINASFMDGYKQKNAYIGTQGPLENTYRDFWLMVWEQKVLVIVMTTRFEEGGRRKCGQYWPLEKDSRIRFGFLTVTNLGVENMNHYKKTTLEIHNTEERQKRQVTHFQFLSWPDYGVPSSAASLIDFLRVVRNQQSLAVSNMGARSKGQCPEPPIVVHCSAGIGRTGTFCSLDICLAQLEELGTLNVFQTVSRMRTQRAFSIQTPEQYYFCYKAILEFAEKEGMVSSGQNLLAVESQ

Sequence of FAP1 (Q12923 whole entry, species assumed): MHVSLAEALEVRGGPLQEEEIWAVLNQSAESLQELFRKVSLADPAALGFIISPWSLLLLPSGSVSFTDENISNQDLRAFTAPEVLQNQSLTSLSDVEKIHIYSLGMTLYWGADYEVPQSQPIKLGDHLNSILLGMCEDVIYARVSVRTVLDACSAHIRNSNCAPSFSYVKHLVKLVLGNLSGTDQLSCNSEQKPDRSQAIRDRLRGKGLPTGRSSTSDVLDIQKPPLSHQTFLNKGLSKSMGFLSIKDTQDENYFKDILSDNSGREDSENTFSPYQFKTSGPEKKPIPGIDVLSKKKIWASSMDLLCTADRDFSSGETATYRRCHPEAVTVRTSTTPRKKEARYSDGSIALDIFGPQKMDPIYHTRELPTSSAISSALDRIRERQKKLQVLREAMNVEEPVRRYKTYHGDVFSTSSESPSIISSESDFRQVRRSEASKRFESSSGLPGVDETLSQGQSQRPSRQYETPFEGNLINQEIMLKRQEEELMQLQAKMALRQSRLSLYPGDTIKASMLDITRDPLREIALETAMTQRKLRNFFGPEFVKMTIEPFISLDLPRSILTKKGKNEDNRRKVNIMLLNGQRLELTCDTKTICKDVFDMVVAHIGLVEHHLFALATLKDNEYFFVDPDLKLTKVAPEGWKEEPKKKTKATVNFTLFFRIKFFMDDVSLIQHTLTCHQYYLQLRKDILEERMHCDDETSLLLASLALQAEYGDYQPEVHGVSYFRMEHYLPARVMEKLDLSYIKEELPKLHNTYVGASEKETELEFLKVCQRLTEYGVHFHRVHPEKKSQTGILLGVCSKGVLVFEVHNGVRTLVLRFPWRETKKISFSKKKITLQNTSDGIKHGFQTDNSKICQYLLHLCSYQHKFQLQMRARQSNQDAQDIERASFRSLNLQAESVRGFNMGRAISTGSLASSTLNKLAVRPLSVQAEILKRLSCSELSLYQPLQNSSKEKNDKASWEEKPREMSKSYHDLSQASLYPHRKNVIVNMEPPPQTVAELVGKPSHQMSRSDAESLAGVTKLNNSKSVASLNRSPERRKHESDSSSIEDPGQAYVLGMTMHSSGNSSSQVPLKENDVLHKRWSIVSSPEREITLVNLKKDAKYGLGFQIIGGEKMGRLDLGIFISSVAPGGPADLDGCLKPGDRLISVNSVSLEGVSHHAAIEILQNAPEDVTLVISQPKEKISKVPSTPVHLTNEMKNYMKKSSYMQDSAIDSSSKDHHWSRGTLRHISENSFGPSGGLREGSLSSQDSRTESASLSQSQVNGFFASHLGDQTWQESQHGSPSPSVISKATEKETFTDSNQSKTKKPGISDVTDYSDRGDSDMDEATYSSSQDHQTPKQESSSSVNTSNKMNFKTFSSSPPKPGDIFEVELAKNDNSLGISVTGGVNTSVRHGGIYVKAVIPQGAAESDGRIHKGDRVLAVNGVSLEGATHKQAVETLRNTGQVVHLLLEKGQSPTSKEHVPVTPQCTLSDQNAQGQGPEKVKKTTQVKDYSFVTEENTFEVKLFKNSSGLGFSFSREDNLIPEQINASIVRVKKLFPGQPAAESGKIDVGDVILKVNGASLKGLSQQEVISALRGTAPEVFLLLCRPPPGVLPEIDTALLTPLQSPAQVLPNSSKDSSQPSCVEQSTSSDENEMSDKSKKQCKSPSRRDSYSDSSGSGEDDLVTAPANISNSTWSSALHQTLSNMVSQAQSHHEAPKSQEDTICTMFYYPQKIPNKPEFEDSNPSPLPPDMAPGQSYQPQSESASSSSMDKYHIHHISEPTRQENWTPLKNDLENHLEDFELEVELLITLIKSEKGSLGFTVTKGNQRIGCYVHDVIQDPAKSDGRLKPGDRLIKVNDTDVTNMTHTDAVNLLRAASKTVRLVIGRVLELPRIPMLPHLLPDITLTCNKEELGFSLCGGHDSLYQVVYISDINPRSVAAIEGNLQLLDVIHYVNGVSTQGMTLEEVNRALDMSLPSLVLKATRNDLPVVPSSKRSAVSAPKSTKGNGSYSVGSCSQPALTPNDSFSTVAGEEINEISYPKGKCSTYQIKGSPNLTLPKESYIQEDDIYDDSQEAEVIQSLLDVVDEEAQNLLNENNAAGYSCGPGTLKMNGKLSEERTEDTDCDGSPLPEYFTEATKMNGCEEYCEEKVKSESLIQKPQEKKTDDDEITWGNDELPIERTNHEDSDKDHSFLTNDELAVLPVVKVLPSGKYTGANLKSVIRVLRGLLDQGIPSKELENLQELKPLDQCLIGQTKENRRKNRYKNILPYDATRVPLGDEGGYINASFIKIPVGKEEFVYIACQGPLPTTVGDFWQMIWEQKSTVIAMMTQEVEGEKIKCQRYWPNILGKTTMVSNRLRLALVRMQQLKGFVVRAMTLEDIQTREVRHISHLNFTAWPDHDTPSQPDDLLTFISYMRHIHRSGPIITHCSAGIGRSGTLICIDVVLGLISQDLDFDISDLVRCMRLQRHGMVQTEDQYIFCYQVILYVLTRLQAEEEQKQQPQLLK
Sequence of Laforin (O95278 whole entry, species assumed): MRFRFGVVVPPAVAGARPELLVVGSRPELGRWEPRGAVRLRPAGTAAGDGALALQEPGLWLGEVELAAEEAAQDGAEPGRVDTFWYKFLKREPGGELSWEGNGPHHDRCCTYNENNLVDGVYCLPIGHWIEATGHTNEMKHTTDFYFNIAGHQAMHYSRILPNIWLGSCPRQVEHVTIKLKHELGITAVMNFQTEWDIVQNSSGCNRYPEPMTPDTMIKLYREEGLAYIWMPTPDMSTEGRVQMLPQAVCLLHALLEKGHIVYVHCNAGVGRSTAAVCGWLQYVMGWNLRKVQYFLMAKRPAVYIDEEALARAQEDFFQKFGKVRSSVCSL
Sequence of mPTPA (P9WIA1 whole entry): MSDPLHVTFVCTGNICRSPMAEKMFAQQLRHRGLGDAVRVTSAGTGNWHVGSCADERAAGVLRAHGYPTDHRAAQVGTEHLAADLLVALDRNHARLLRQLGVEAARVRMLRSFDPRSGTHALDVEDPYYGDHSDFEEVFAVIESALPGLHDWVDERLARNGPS
Sequence of SHP1 (P29350 whole entry): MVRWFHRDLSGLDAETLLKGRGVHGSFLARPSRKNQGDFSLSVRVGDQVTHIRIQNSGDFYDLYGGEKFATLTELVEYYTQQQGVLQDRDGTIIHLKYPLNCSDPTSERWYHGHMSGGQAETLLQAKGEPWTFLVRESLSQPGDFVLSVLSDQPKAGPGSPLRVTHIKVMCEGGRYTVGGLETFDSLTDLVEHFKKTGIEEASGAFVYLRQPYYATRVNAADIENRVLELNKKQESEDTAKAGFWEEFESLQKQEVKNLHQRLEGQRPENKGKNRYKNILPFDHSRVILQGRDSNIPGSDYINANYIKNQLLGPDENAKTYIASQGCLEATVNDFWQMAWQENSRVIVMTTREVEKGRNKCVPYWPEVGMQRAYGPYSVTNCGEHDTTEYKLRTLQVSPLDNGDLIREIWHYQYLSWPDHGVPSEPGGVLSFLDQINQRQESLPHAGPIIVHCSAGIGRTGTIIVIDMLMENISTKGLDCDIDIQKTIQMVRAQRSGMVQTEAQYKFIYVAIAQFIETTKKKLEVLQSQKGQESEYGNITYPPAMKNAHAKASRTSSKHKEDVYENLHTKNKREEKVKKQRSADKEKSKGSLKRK

Row | SMILES | IC50 [1] [µM] | IC50 [2] [µM] | IC50 [3] [µM] | IC50 [4] [µM] | IC50 [5] [µM] | IC50 [6] [µM] | IC50 [7] [µM] | IL-6 secretion [8] | IC50 [9] [µM]
1 | Cn1c(-c2ccccc2C(F)(F)F)c(I)c2cc(C(=O)O)c(O)cc21 [Compound 207a, 6-hydroxy-3-iodo-1-methyl-2-(2-(trifluoromethyl)phenyl)-1H-indole-5-carboxylic acid] | 82 ± 1 | 700 ± 100 | 84 ± 1 | 56 ± 1 | 227 ± 4 | – | – | – | –
2 | O=C(O)c1cc2c(C#Cc3cccc(C(F)(F)F)c3)c(-c3ccccc3)oc2cc1O [32 (L01Z08)] | – | 6.7 ± 0.7 | 1.3 ± 0.2 | 1.4 ± 0.2 | 4.2 ± 0.5 | 2.3 ± 0.3 | 40 ± 10 | returned to normal or near normal IL-6 secretion levels | 4.3 ± 0.5
